Assay results from patent publication US20090312356A1, “NICOTINIC AGONISTS SELECTIVE FOR THE ALPHA7 RECEPTOR SUBTYPE, THE PROCESS FOR THE PREPARATION THEREOF AND PHARMACEUTICAL CO[…]” (priority 2006, published 2009).

How the values were obtained:
human α7 (hα7) receptors = biological target: T1, human α7 (hα7) receptors (Homo sapiens, UniProt P36544); assay: whole cell patch-clamp electrophysiological recordings, hα7-expressing GH4C1 cells; type: cell-based; conditions: 50 nM
T1 construct: expressed in transfected cells
T1 sequence (P36544 23-502): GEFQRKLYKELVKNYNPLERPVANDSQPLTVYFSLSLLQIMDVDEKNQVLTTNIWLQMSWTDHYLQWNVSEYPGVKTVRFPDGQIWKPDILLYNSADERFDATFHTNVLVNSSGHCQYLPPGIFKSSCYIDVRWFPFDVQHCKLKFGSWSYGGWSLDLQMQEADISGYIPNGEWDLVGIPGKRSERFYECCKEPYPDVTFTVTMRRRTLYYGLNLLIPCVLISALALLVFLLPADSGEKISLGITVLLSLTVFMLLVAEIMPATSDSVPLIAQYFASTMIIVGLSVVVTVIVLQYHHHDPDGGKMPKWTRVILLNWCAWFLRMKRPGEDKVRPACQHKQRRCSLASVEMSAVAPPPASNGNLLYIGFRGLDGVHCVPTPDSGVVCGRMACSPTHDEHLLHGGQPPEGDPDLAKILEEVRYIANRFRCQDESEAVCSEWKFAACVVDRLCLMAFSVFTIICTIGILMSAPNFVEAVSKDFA
Method: α7 Subtype: The human α7 (hα7) receptors were stably expressed in transfected GH4C1 and grown in the presence of geneticin (G418 sulfate, 500 μg/mL) as previously described.^31

SMILES	melting point	effect on acetylcholine-induced hα7 current (human α7 (hα7) receptors)
CN1OC2(CC1=O)CN1CCC2CC1 (racemic)	182 to 183 °C	–
c1ccc(COC2=NOC3(C2)CN2CCC3CC2)cc1 (racemic)	> 50 °C	–
BrC1=NN(c2ccccc2)C2(C1)CN1CCC2CC1 (racemic)	203 to 207 °C	–
CCN1C[C@]2(COC(=O)c3ccccc3N3C(=O)C[C@H](C)C3=O)CC[C@H](OC)[C@@]34[C@@H]5C[C@H]6[C@H](OC)[C@@H]5[C@](O)(C[C@@H]6OC)[C@@](O)([C@@H](OC)[C@H]23)[C@@H]14 [methyllycaconitine]	–	blocked
